From patent publication US20240067632A1, “WEE1 Degrading Compounds and Uses Thereof” (Bristol-Myers Squibb Company, priority 2022, published 2024)
pEC50: −log10 of the molar value. Read-outs that look alike come from different tables or passages of the source.

Experiments:
[1] = test system: MKN45 cells; test: MKN45 cell proliferation assay (Cell-Titer-Glo, 120 h); type: cell-based; conditions: for pEC50: Homo sapiens, MKN-45, 120 h, Cell-Titer-Glo, read-out: MKN45 Cell Prolif. 120 hr (EC50); for MKN45 Cell Prolif. 120 hr (Ymin-Obs): minimal percent of DMSO control observed in the concentrations tested
Experimental: MKN45 cells were obtained from Celgene internal cell banks and cultured in RPMI complete media (RPMI-1640, 1× Penicillin/Streptomycin, 1× glutamine, 1× Sodium Pyruvate, Non-essential Amino Acids, 10% Fetal Bovine serum, all component from Thermo-Fisher). Compounds were dispensed into 384-well plates using an HP DE300 compound printer in triplicate with 8 compounds on each plate. For each compound, a 10-point dose response was printed at half-log dilutions starting at either 1 uM or 10 uM. The DMSO concentration was kept constant for a final assay concentration of 0.1% per well assuming 50 ul final media volume. Compound plates were sealed and frozen at −20 C until use.
For each assay batch, compound plates were thawed and allowed to reach room temperature, and cells were seeded at 400 cells per well in 50 ul complete RPMI media. After 120 hours of incubation at 37 C and 5% CO2, cells were lysed by addition of 25 μL of Cell-Titer-Glo Reagent (Promega Corporation, Madison, WI), as per manufacturer's instructions, protected from light, shaken for 45 minutes, and total luminescence read by a Perkin Elmer Envision plate reader. Total luminescence signal is linearly correlated with cell number remaining in the well.
Luminescence data was processed per plate by subtracting reagent-only “blank” well luminescence from all measured values and calculating a percent of DMSO control value for each treatment well. Then, to determine the half-maximal effective concentration (EC50) values for cell growth inhibition, a four parameter logistic model was fit to the data for each DMSO-normalized compound: Sigmoidal Dose-Response Model: (FIT=(A+((B−A)/1+((C/x)^D)))) where C is the inflection point (EC50), D is the Hill slope, and A and B are the low and high limits of the fit respectively. The lower limit of the fit (value A) is referred to as Ymin-calculated. The minimal percent of DMSO control that is observed in the concentrations tested for each compound is labeled as “Ymin-obs”, and was recorded and reported in the tables. Sigmoidal fit curves were processed and evaluated using Activity Base (IDBS, Alameda, CA).

[2] = target: T1, WEE1 (Homo sapiens, UniProt P30291+Q96SW2); test: WEE1-ePL degradation assay (LentiX-WEE1-ePL-GSPT1-ND cells, InCELL Hunter luminescence, 4 h); type: cell-based; conditions: 293T-LentiX WEE1-ePL cells; for DC50: read-out: 293T-LentiX WEE1-ePL Degradation 4 hr (EC50)
T1 construct: C-terminal ePL-tagged (DiscoverX, Fremont, CA) full-length WEE1 expression construct; expressed in transfected cells; host or cells: LentiX-HEK293T (Invitrogen), lentiviral transduction; co-expressing GSPT1-GN (G576N, lacking the first 158 amino acids)
Experimental: To generate LentiX-WEE1-ePL-GSPT1-ND cells for the WEE1 degradation assay, LentiX-HEK293T (Invitrogen) were transduced by lentivirus with a C-terminal ePL-tagged (DiscoverX, Fremont, CA) full-length WEE1 expression construct. […] Cells were selected and maintained in complete DMEM media (DMEM, 10% Heat Inactivated FBS, 400 μg/mL Geneticin, and 1 μg/mL puromycin at 37 C and 5% CO2). Cells were passaged every 3-4 days by reseeding 1×10^6 cells in a T150 flask.
Cells were dispensed into 384-well white plates (Corning #3570, NY) that were pre-spotted with compounds using an acoustic dispenser (Echo acoustic transfer system, Beckman Coulter Life Sciences, Carlsbad, CA) as a 10-point dose-response curve with a 3-fold dilution starting at either 1 uM or 10 uM and including a DMSO control. Twenty-five microliters of media containing 2500 cells for LentiX-oeWEE1-ePL was dispensed per well. Assay plates were incubated at 37° C. with 5% CO2 for four hours (WEE1) After incubation, 25 μL of the InCELL Hunter™ Detection Reagent Working Solution (DiscoverX, Fremont, CA) was added to each well and incubated at room temperature for 30 minutes protected from light. After 30 minutes, luminescence was read on a PHERAstar luminometer (Cary, NC).
To determine the half-maximal effective concentration (EC50) values for WEE1-ePL degradation, a four parameter logistic model was used: (Sigmoidal Dose-Response Model) (FIT=(A+((B−A)/1+((C/x)^D)))) where C is the inflection point (EC50), D is the Hill slope, and A and B are the low and high limits of the fit respectively). The lower limit of the fit (value A) is referred to as Ymin. […] The maximum limit constraint, Ymax, is similarly derived using DMSO control. The curves were processed and evaluated using Activity Base (IDBS, Alameda, CA).

[3] = lower limit of the fit (0 = luciferase inhibitor, Ymax = DMSO control)

With `COC[C@@H]1CN(Cc2ccc3nc(C4CCOCC4)ccc3c2)C[C@H]1Oc1ccc2c(c1)CN([C@H]1CCC(=O)NC1=O)C2=O` [(3S)-3-(5-{[(3S,4S)-4-(methoxymethyl)-1-{[2-(oxan-4-yl)quinolin-6-yl]methyl}pyrrolidin-3-yl]oxy}-1-oxo-2,3-dihydro-1H-isoindol-2-yl)piperidine-2,6-dione] the pEC50 [1] was 9.14 and the “MKN45 Cell Prolif. 120 hr (Ymin-Obs)” value [1] was 9.194.
For `N#Cc1ccc2cc(CN3CC[C@H](Oc4ccc5c(c4)CN([C@H]4CCC(=O)NC4=O)C5=O)C3)cc(F)c2n1` [6-{[(3S)-3-({2-[(3S)-2,6-dioxopiperidin-3-yl]-1-oxo-2,3-dihydro-1H-isoindol-5-yl}oxy)pyrrolidin-1-yl]methyl}-8-fluoroquinoline-2-carbonitrile], the pEC50 ([1]; growth inhibition) was 8.57, the “MKN45 Cell Prolif. 120 hr (Ymin-Obs)” value [1] was 8.579 and the “293T-LentiX WEE1-ePL Degradation 4 hr (Ymin)” value [2, 3] was 27.19. For the same compound, the DC50 [2] was 0.00171 µM.
In the case of `O=C1CCC(N2Cc3cc(O[C@H]4CCN(Cc5ccc6nc([C@@H]7CCCOC7)ccc6c5)C4)ccc3C2=O)C(=O)N1` (stereo partly drawn) [3-(5-{[(3S)-1-({2-[(3S)-oxan-3-yl]quinolin-6-yl}methyl)pyrrolidin-3-yl]oxy}-1-oxo-2,3-dihydro-1H-isoindol-2-yl)piperidine-2,6-dione], the pEC50 ([1]; growth inhibition) was 8.44, the “MKN45 Cell Prolif. 120 hr (Ymin-Obs)” value [1] was 10.6 and the “293T-LentiX WEE1-ePL Degradation 4 hr (Ymin)” value [2, 3] was 32. It also gave a DC50 [2] of 0.00215 µM.
In the case of `COc1cncc(CN2CC[C@H](Oc3ccc4c(c3)CN(C3CCC(=O)NC3=O)C4=O)C2)c1` (stereo partly drawn) [3-(5-{[(3S)-1-[(5-methoxypyridin-3-yl)methyl]pyrrolidin-3-yl]oxy}-1-oxo-2,3-dihydro-1H-isoindol-2-yl)piperidine-2,6-dione], the pEC50 ([1]; growth inhibition) was 5.48, the “MKN45 Cell Prolif. 120 hr (Ymin-Obs)” value [1] was 48.12 and the “293T-LentiX WEE1-ePL Degradation 4 hr (Ymin)” value [2, 3] was 37.55. The DC50 [2] was 0.0614 µM.
`COc1cc(C)nc2ccc(CN3CC[C@H](Oc4ccc5c(c4)CN(C4CCC(=O)NC4=O)C5=O)C3)cc12` (stereo partly drawn) [3-(5-{[(3S)-1-[(4-methoxy-2-methylquinolin-6-yl)methyl]pyrrolidin-3-yl]oxy}-1-oxo-2,3-dihydro-1H-isoindol-2-yl)piperidine-2,6-dione] was tested, and the pEC50 ([1]; growth inhibition) was 5.82, the “MKN45 Cell Prolif. 120 hr (Ymin-Obs)” value [1] was 47.92 and the “293T-LentiX WEE1-ePL Degradation 4 hr (Ymin)” value [2, 3] was 44.38. The DC50 [2] was 0.0268 µM.
With `CC1(C)CN(c2ncc3cc(CN4CC[C@H](Oc5ccc6c(c5)CN(C5CCC(=O)NC5=O)C6=O)C4)ccc3n2)CCO1` (stereo partly drawn) [3-(5-{[(3S)-1-{[2-(2,2-dimethylmorpholin-4-yl)quinazolin-6-yl]methyl}pyrrolidin-3-yl]oxy}-1-oxo-2,3-dihydro-1H-isoindol-2-yl)piperidine-2,6-dione] the pEC50 ([1]; growth inhibition) was 8.12, the “MKN45 Cell Prolif. 120 hr (Ymin-Obs)” value [1] was 9.381 and the “293T-LentiX WEE1-ePL Degradation 4 hr (Ymin)” value [2, 3] was 31. The DC50 [2] was 0.0116 µM.
In the case of `O=C1CCC(N2Cc3cc(O[C@H]4CCN(Cc5ccc6nc(N7CCC[C@@]78CCOC8)ccc6c5)C4)ccc3C2=O)C(=O)N1` (stereo partly drawn) [3-(5-{[(3S)-1-({2-[(5S)-7-oxa-1-azaspiro[4.4]nonan-1-yl]quinolin-6-yl}methyl)pyrrolidin-3-yl]oxy}-1-oxo-2,3-dihydro-1H-isoindol-2-yl)piperidine-2,6-dione], the pEC50 ([1]; growth inhibition) was 8.00, the “MKN45 Cell Prolif. 120 hr (Ymin-Obs)” value [1] was 26.44 and the “293T-LentiX WEE1-ePL Degradation 4 hr (Ymin)” value [2, 3] was 47. For the same compound, the DC50 [2] was 0.00366 µM.
In the case of `O=C1CC[C@H](N2Cc3cc(O[C@H]4CCN(Cc5cc(F)c6nc(N7CCOCC7)ccc6c5)C4)ccc3C2=O)C(=O)N1` [(3S)-3-(5-{[(3S)-1-{[8-fluoro-2-(morpholin-4-yl)quinolin-6-yl]methyl}pyrrolidin-3-yl]oxy}-1-oxo-2,3-dihydro-1H-isoindol-2-yl)piperidine-2,6-dione], the pEC50 [1] was 8.14 and the “MKN45 Cell Prolif. 120 hr (Ymin-Obs)” value [1] was 12.7.
In the case of `O=C1CC[C@H](N2Cc3cc(O[C@@H]4CN(Cc5ccc6nc(N7CCOCC7)ncc6c5)CC4(F)F)ccc3C2=O)C(=O)N1` [(3S)-3-(5-{[(3R)-4,4-difluoro-1-{[2-(morpholin-4-yl)quinazolin-6-yl]methyl}pyrrolidin-3-yl]oxy}-1-oxo-2,3-dihydro-1H-isoindol-2-yl)piperidine-2,6-dione], the pEC50 [1] was 7.75 and the “MKN45 Cell Prolif. 120 hr (Ymin-Obs)” value [1] was 10.03.
`COC[C@H]1CCC[C@H]1c1ccc2cc(CN3CC[C@H](Oc4ccc5c(c4)CN(C4CCC(=O)NC4=O)C5=O)C3)ccc2n1` (stereo partly drawn) [3-(5-{[(3S)-1-({2-[(1R,2S)-2-(methoxymethyl)cyclopentyl]quinolin-6-yl}methyl)pyrrolidin-3-yl]oxy}-1-oxo-2,3-dihydro-1H-isoindol-2-yl)piperidine-2,6-dione] was tested, and the pEC50 [1] was 7.91 and the “MKN45 Cell Prolif. 120 hr (Ymin-Obs)” value [1] was 15.33.
With `O=C1CC[C@H](N2Cc3cc(O[C@H]4CCN(Cc5ccc6nc(C7CCOCC7)ncc6c5F)C4)ccc3C2=O)C(=O)N1` [(3S)-3-(5-{[(3S)-1-{[5-fluoro-2-(oxan-4-yl)quinazolin-6-yl]methyl}pyrrolidin-3-yl]oxy}-1-oxo-2,3-dihydro-1H-isoindol-2-yl)piperidine-2,6-dione] the pEC50 [1] was 7.77 and the “MKN45 Cell Prolif. 120 hr (Ymin-Obs)” value [1] was 9.88.
`COC[C@@H]1CCC[C@H]1c1ccc2cc(CN3CC[C@H](Oc4ccc5c(c4)CN(C4CCC(=O)NC4=O)C5=O)C3)ccc2n1` (stereo partly drawn) [3-(5-{[(3S)-1-({2-[(1R,2R)-2-(methoxymethyl)cyclopentyl]quinolin-6-yl}methyl)pyrrolidin-3-yl]oxy}-1-oxo-2,3-dihydro-1H-isoindol-2-yl)piperidine-2,6-dione] was tested, and the pEC50 [1] was 7.78 and the “MKN45 Cell Prolif. 120 hr (Ymin-Obs)” value [1] was 12.33.
`O=C1CC[C@H](N2Cc3cc(O[C@H]4CCN(Cc5ccc6nc(C7CCOCC7)ccc6c5Cl)C4)ccc3C2=O)C(=O)N1` [(3S)-3-(5-{[(3S)-1-{[5-chloro-2-(oxan-4-yl)quinolin-6-yl]methyl}pyrrolidin-3-yl]oxy}-1-oxo-2,3-dihydro-1H-isoindol-2-yl)piperidine-2,6-dione] was tested, and the “293T-LentiX WEE1-ePL Degradation 4 hr (Ymin)” value ([2]; lower limit of the fit (Ymin=0 luciferase inhibitor, Ymax DMSO control)) was 28.82 and the DC50 [2] was 0.0028 µM.
`O=C1CCC(N2Cc3cc(O[C@H]4CCN(Cc5cccc6nccnc56)C4)ccc3C2=O)C(=O)N1` (stereo partly drawn) [3-(1-oxo-5-{[(3S)-1-[(quinoxalin-5-yl)methyl]pyrrolidin-3-yl]oxy}-2,3-dihydro-1H-isoindol-2-yl)piperidine-2,6-dione] was tested, and the “293T-LentiX WEE1-ePL Degradation 4 hr (Ymin)” value [2, 3] was 53.34 and the DC50 [2] was 0.174 µM.
With `O=C1CCC(N2C(=O)c3ccc(O[C@@H]4CCN(Cc5ccc6ncccc6c5)C4)cc3C2=O)C(=O)N1` (stereo partly drawn) [2-(2,6-dioxopiperidin-3-yl)-5-{[(3R)-1-[(quinolin-6-yl)methyl]pyrrolidin-3-yl]oxy}-2,3-dihydro-1H-isoindole-1,3-dione] the “293T-LentiX WEE1-ePL Degradation 4 hr (Ymin)” value [2, 3] was 83.71.
In the case of `O=C1CCC(N2C(=O)c3ccc(O[C@@H]4CCN(Cc5ccnc6ccccc56)C4)cc3C2=O)C(=O)N1` (stereo partly drawn) [2-(2,6-dioxopiperidin-3-yl)-5-{[(3R)-1-[(quinolin-4-yl)methyl]pyrrolidin-3-yl]oxy}-2,3-dihydro-1H-isoindole-1,3-dione], the “293T-LentiX WEE1-ePL Degradation 4 hr (Ymin)” value [2, 3] was 90.1.
For `COc1nc2ccccc2cc1CN1CC[C@H](Oc2ccc3c(c2)CN(C2CCC(=O)NC2=O)C3=O)C1` (stereo partly drawn) [3-(5-{[(3S)-1-[(2-methoxyquinolin-3-yl)methyl]pyrrolidin-3-yl]oxy}-1-oxo-2,3-dihydro-1H-isoindol-2-yl)piperidine-2,6-dione], the “293T-LentiX WEE1-ePL Degradation 4 hr (Ymin)” value [2, 3] was 45.09 and the DC50 [2] was 0.0183 µM.
